In US8703786B2, “Etravirine formulations and uses thereof” (priority 2011, dated 2014):
≈ marks a conversion by molar mass, not a printed value. Read-outs that look alike come from different tables or passages of the source.

Key:
[1] = test system: plasma proteins; conditions: cited from earlier work
[2] = Solubility of etravirine in various media by phase solubility analysis (HPLC-UV); assay type: physicochemical; conditions: for solubility at 72 h: thermodynamic from solid
Experimental: The solubility of etravirine was determined in water, various oils and some organic solvents by phase solubility analysis. Excess drug was added into 20 ml screw-capped scintillation vials containing 5 ml of the tested solvents. The vials were rotated end-over-end at a constant speed on shaker (EBERBACH Corporation, Ann Arbor, Mich.) at room temperature for 3 days (72 hours). The samples were then subjected to centrifugation on a laboratory centrifuge at 13,000 rpm for 15 minutes. Aliquot of the supernatant was diluted with DMSO to the proper concentration before they were analyzed by high-performance liquid chromatography (HPLC) using UV detector.
The HPLC system involved Waters 600 pump, 2487 UV detector and 717 plus auto sampler (Waters Corporation, Milford, Mass.). Separations were done on a 4.6×150 mm, 3.5 μm XTerra MS-C18 column (Waters Corporation, Milford, Mass.). The flow rate was set at 1 ml/min and the wavelength at 304 nm. Chromatographic data acquisition, peak integration and quantification were performed using the Empower software package by Waters Corporation. Mobile phase solution A consisted of 20 mM potassium dihydrogen phosphate aqueous solution and solution B consisted of acetonitrile (40% solution A+60% solution B). pH was adjusted to 3.2 using phosphoric acid. Solvents were regularly prepared prior to each series of analysis.

[3] = cited from earlier work; for Biopharmaceutics Classification System class: low water solubility and permeability
[4] = cited from earlier work
[5] = Pharmacokinetic / oral bioavailability study in rats (LC-MS/MS of plasma); assay type: in vivo; conditions: male, Sprague-Dawley, rat
Experimental: Male Sprague-Dawley rats (250-350 g, Harlan Laboratory Inc., Indianapolis, Ind.) were housed in stainless steel cages and had free access to food and water. They were acclimated to the animal care facility for at least 7 days before the start of the study. To facilitate the withdrawal of timed, multiple blood samples from each animal, the right jugular vein of each animal was cannulated one day prior to drug administration. The cannulas were flushed daily with 0.5 mL sterile heparinized saline (100 units/ml). Under ketamine:acetopromazine:xylazine (50:3.3:3.3 mg/kg ip) anesthesia, silicone elastomer tubing (0.02×0.037 in) was inserted into the jugular vein, secured with a silk suture, and exteriorized in the dorsal infrascapular area. The surgical incision was prophylactically treated with nitrofurazone wound powder and closed with surgical staples.
Animals were allowed free access to food and water at all times. The jugular veins of the rats were cannulated under anesthesia the day before the study. All in vivo studies were initiated between 8:00 am and 9:00 am to eliminate possible circadian variation. The animals were fasted overnight with water allowed ad libitum before oral dosing.
The in vivo study consists of four rat groups. […] The second group is a reference group (n=5) which was given an oral 200 mg/kg administration of a suspension of the commercial Intelence® tablets in 1% Tween 80. […] Oral administration was performed using an animal feeding needle (18 in.×3 in. W; 2¼ mm Ball). Multiple blood samples (0.25 mL) were collected (from the jugular vein cannula) immediately before dosing and at 0.5, 1, 1.5, 2, 3, 4, 5, 6, 8, 10 and 24 hours after dosing. An aliquot of each plasma sample was stored at −70° C. pending LC-MS/MS assay.
Etravirine concentrations in rat plasma was analyzed using a sensitive and accurate liquid chromatographic-tandem mass spectrometry (LC-MS/MS) method developed in the laboratory (10). […] The column effluent was monitored using a 3200 QTRAP® mass spectrum, which is a hybrid triple quadruple linear ion trap equipped with a Turbolonspray ion source. […]

[6] = molecular target: p-gp (Homo sapiens, UniProt P08183); conditions: in vitro; read-out: apparent IC50 (inhibitor of p-gp); cited from earlier work
p-gp, sequence (P08183 whole entry): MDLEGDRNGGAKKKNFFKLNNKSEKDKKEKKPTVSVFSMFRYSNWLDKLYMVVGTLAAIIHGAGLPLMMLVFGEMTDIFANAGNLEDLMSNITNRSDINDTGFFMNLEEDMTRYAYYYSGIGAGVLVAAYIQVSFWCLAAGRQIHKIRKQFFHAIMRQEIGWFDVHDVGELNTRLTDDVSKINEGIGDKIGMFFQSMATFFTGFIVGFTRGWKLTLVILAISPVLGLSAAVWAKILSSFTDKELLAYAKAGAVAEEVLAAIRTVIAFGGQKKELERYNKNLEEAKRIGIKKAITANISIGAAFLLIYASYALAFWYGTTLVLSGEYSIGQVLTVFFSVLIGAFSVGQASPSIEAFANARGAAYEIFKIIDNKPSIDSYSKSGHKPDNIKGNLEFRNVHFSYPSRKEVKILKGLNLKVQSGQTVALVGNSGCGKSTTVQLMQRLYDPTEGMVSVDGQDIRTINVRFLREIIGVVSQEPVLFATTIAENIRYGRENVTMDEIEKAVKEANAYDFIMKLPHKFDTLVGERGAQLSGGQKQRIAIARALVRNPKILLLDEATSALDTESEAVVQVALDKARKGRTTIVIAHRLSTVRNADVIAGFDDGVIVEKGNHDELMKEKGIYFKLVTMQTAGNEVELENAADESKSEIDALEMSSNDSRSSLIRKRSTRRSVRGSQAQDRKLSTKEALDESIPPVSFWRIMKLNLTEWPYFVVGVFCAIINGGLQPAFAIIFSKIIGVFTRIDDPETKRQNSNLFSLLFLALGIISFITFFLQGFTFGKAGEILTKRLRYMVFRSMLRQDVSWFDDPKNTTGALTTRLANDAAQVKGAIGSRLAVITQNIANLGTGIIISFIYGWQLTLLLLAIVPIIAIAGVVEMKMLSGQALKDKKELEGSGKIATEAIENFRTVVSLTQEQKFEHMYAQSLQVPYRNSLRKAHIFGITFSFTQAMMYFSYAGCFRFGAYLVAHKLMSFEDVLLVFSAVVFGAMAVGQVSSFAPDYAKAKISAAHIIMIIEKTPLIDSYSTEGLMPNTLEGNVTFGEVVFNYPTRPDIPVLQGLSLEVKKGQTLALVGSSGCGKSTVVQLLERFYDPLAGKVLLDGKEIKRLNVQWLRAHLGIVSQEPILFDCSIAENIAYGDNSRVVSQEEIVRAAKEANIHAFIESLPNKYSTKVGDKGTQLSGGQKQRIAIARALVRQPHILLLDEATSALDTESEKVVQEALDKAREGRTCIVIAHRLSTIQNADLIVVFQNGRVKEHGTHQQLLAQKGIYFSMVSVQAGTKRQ

## Cc1cc(C#N)cc(C)c1Oc1nc(Nc2ccc(C#N)cc2)nc(N)c1Br [Etravirine, 4-[[6-amino-5-bromo-2-[(4-cyanophenyl)amino]-4-pyrimidinyl]oxy]-3,5-dimethyl benzonitrile]
[1]
  binding to plasma proteins: highly bound
[2]; distilled water, water, read-out: intrinsic solubility
  solubility at 72 h: 3.9 µg/mL (≈ 0.00896 mM)
[2]; in DMSO and 1-methyl-2-pyrrolidinone
  solubility (descriptive): freely soluble
[2]; in PEG 400, Tween 80, Cremophore EL, Tween 20, and Labrasol
  solubility (descriptive): soluble
[2]; in corn oil, soybean oil and olive oil
  solubility (descriptive): very slightly soluble
[2]; in peanut oil, Caproyl 90
  solubility (descriptive): slightly soluble
[2]; in water
  solubility (descriptive): practically insoluble
[2]; oil or lipid, Caproyl 90, room temperature, read-out: Drug Solubility
  solubility at 72 h: 5420 ± 60 µg/mL (≈ 12.5 mM)
[2]; oil or lipid, Coriander Oil, room temperature, read-out: Drug Solubility
  solubility at 72 h: 740 µg/mL (≈ 1.7 mM)
[2]; oil or lipid, Corn Oil, room temperature, read-out: Drug Solubility
  solubility at 72 h: 420 µg/mL (≈ 0.965 mM)
[2]; oil or lipid, Labrafac CC, room temperature, read-out: Drug Solubility
  solubility at 72 h: 1040 ± 10 µg/mL (≈ 2.39 mM)
[2]; oil or lipid, Lavender Oil, room temperature, read-out: Drug Solubility
  solubility at 72 h: 1230 µg/mL (≈ 2.83 mM)
[2]; oil or lipid, Linseed Oil, room temperature, read-out: Drug Solubility
  solubility at 72 h: 790 µg/mL (≈ 1.81 mM)
[2]; oil or lipid, Mineral Oil, room temperature, read-out: Drug Solubility
  solubility at 72 h: 4 µg/mL (≈ 0.00919 mM)
[2]; oil or lipid, Olive Oil, room temperature, read-out: Drug Solubility
  solubility at 72 h: 220 µg/mL (≈ 0.505 mM)
[2]; oil or lipid, Paraffin Oil, room temperature, read-out: Drug Solubility
  solubility at 72 h: 9 µg/mL (≈ 0.0207 mM)
[2]; oil or lipid, Peanut Oil, room temperature, read-out: Drug Solubility
  solubility at 72 h: 2190 µg/mL (≈ 5.03 mM)
[2]; oil or lipid, Pluro oleique CC 497, room temperature, read-out: Drug Solubility
  solubility at 72 h: 1040 ± 20 µg/mL (≈ 2.39 mM)
[2]; oil or lipid, Soybean Oil, room temperature, read-out: Drug Solubility
  solubility at 72 h: 310 µg/mL (≈ 0.712 mM)
[2]; organic solvent or mixture, 1-methyl-2-pyrrolidinone, room temperature, read-out: Drug Solubility
  solubility at 72 h: 458000 µg/mL (≈ 1050 mM)
[2]; organic solvent or mixture, Cremophore EL, room temperature, read-out: Drug Solubility
  solubility at 72 h: 46000 ± 690 µg/mL (≈ 106 mM)
[2]; organic solvent or mixture, Labrasole, room temperature, read-out: Drug Solubility
  solubility at 72 h: 61000 µg/mL (≈ 140 mM)
[2]; organic solvent or mixture, PEG 400, room temperature, read-out: Drug Solubility
  solubility at 72 h: 71600 µg/mL (≈ 164 mM)
[2]; organic solvent or mixture, Tween 20, room temperature, read-out: Drug Solubility
  solubility at 72 h: 55800 ± 870 µg/mL (≈ 128 mM)
[2]; organic solvent or mixture, Tween 80, room temperature, read-out: Drug Solubility
  solubility at 72 h: 49700 ± 410 µg/mL (≈ 114 mM)
[2]; Water, room temperature, read-out: Drug Solubility
  solubility at 72 h: 3.97 µg/mL (≈ 0.00912 mM)
[3]; PEG 400
  solubility in PEG 400 reported in the scientific literature: 74000 µg/mL (≈ 170 mM)
[3]
  ionization constant (pka): 3.75
  octanol:water partition coefficient (logP): greater than 5
  Biopharmaceutics Classification System class: class IV
[3]; listed as etravirine
  Biopharmaceutics Classification System class: class IV
[4]; fasted oral administration
  time of median peak concentration: approximately 4.0 hours
[4]; in vivo
  terminal elimination half-life in plasma: 30 to 40 h
[5]; IV 2.5 mg/kg
  AUC: 1660 ± 498 ng·h/mL
[5]; IV 2.5 mg/kg (solution in DMSO)
  Cmax: 2360 ± 1120 ng/mL
[5]; IV 2.5 mg/kg, read-out: T1/2 (terminal biological half-life) (converted)
  half-life: 1.14 ± 0.91 h
[6]
  IC50: 24.2 µM
